How the values were obtained:
ISC-enriched organoids [1] = experiment: Primary screen, 384-well 2.5-D organoid differentiation (ENR+CD, 6 days): basal lysozyme secretion (LYZ.NS); assay type: cell-based, murine; conditions: for Dose.FC.LYZ.NS: FC vs plate median; for SSMD.LYZ.NS: strictly standardized mean difference
From the text: (§1) High-throughput screening.

ISC-enriched organoids [2] = experiment: Primary screen, 384-well 2.5-D organoid differentiation (ENR+CD, 6 days, Target Selective Inhibitor Library, vs whole-plate median): ATP (CellTiter-Glo 3D, CTG); conditions: for Dose.FC.CTG: FC vs plate median; for SSMD.CTG: strictly standardized mean difference
ISC-enriched organoids [3] = experiment: Primary screen, 384-well 2.5-D organoid differentiation (ENR+CD, 6 days): carbachol-induced lysozyme secretion (LYZ.S); assay type: cell-based, murine; conditions: for Dose.FC.LYZ.S: FC vs plate median; for Z.LYZ.S: standard z score; for SSMD.LYZ.S: strictly standardized mean difference
From the text: as §1

[4] = Dose 0.08 uM, standard z score of FC
[5] = Dose 0.40 uM, standard z score of FC
[6] = Dose 2.00 uM, standard z score of FC
[7] = Dose 10.00 uM, standard z score of FC
[8] = primary screen, 1st of the 4 dose lines of the treatment (dose not given)
[9] = primary screen, 2nd of the 4 dose lines of the treatment (dose not given)
[10] = primary screen, 3rd of the 4 dose lines of the treatment (dose not given)
[11] = primary screen, 4th of the 4 dose lines of the treatment (dose not given)
[12] = Dose 0.08 uM, primary screen, standard z score
[13] = Dose 0.40 uM, primary screen, standard z score
[14] = Dose 2.00 uM, primary screen, standard z score
[15] = Dose 10.00 uM, primary screen, standard z score

Row | SMILES | Dose.FC.LYZ.NS (ISC-enriched organoids [1]; Dose 0.08 uM, primary screen) [log 2 fold change] | Z.LYZ.NS (ISC-enriched organoids [1]; [4]) | Dose.FC.LYZ.NS (ISC-enriched organoids [1]; Dose 0.40 uM, primary screen) [log 2 fold change] | Z.LYZ.NS (ISC-enriched organoids [1]; [5]) | Dose.FC.LYZ.NS (ISC-enriched organoids [1]; Dose 2.00 uM, primary screen) [log 2 fold change] | Z.LYZ.NS (ISC-enriched organoids [1]; [6]) | Dose.FC.LYZ.NS (ISC-enriched organoids [1]; Dose 10.00 uM, primary screen) [log 2 fold change] | Z.LYZ.NS (ISC-enriched organoids [1]; [7]) | Dose.FC.CTG (ISC-enriched organoids [2]; Dose 0.08 uM, primary screen) [log 2 fold change] | Z.CTG (ISC-enriched organoids [2]; [4]) | Dose.FC.CTG (ISC-enriched organoids [2]; Dose 0.40 uM, primary screen) [log 2 fold change] | Z.CTG (ISC-enriched organoids [2]; [5]) | Dose.FC.CTG (ISC-enriched organoids [2]; Dose 2.00 uM, primary screen) [log 2 fold change] | Z.CTG (ISC-enriched organoids [2]; [6]) | Dose.FC.CTG (ISC-enriched organoids [2]; Dose 10.00 uM, primary screen) [log 2 fold change] | Z.CTG (ISC-enriched organoids [2]; [7]) | Dose.FC.LYZ.S (ISC-enriched organoids [3]; Dose 0.08 uM, primary screen) [log 2 fold change] | Dose.FC.LYZ.S (ISC-enriched organoids [3]; Dose 0.40 uM, primary screen) [log 2 fold change] | Dose.FC.LYZ.S (ISC-enriched organoids [3]; Dose 2.00 uM, primary screen) [log 2 fold change] | Dose.FC.LYZ.S (ISC-enriched organoids [3]; Dose 10.00 uM, primary screen) [log 2 fold change] | further results
1 | Cc1ccc(S(=O)(=O)c2ccc([N+](=O)[O-])o2)cc1 [NSC697923] | 0.091 | 0.789 | 0.051 | 0.441 | −0.104 | −0.906 | −0.154 | −1.338 | −0.052 | −0.123 | −0.014 | −0.033 | −0.101 | −0.241 | −0.782 | −1.867 | 0.036 | 0.108 | −0.154 | −0.270 | –
2 | Cc1ccccc1C(=O)Nc1ccc(C(=O)N2CCCC(N(C)C)c3ccccc32)cc1 (centres unmarked) [Mozavaptan] | – | – | – | – | – | – | – | – | – | 0.765 | – | 0.562 | – | 0.259 | – | −0.803 | – | – | – | – | SSMD.LYZ.NS (ISC-enriched organoids [1]; [8]): 0.283; SSMD.LYZ.NS (ISC-enriched organoids [1]; [9]): −0.203; SSMD.LYZ.NS (ISC-enriched organoids [1]; [10]): 0.340; SSMD.LYZ.NS (ISC-enriched organoids [1]; [11]): −1.544; SSMD.CTG (ISC-enriched organoids [2]; [8]): 0.521; SSMD.CTG (ISC-enriched organoids [2]; [9]): 0.427; SSMD.CTG (ISC-enriched organoids [2]; [10]): 0.274; SSMD.CTG (ISC-enriched organoids [2]; [11]): −0.812; Z.LYZ.S (ISC-enriched organoids [3]; [8]): 0.557; Z.LYZ.S (ISC-enriched organoids [3]; [9]): 1.068; Z.LYZ.S (ISC-enriched organoids [3]; [10]): 0.688; Z.LYZ.S (ISC-enriched organoids [3]; [11]): −1.745; SSMD.LYZ.S (ISC-enriched organoids [3]; [8]): 0.266; SSMD.LYZ.S (ISC-enriched organoids [3]; [9]): 0.560; SSMD.LYZ.S (ISC-enriched organoids [3]; [10]): 0.775; SSMD.LYZ.S (ISC-enriched organoids [3]; [11]): −1.480
3 | NC(=O)C1CCCc2c1[nH]c1ccc(Cl)cc21 (centres unmarked) [EX 527 (Selisistat)] | – | 0.871 | – | 0.512 | – | 0.261 | – | 0.494 | – | 0.574 | – | 0.415 | – | 0.814 | – | 0.766 | – | – | – | – | Dose.FC.LYZ.NS (ISC-enriched organoids [1]; Dose 0.08 uM, ENR+CD, 6 days): 0.100 log 2 fold change; Dose.FC.LYZ.NS (ISC-enriched organoids [1]; Dose 0.40 uM, ENR+CD, 6 days): 0.059 log 2 fold change; Dose.FC.LYZ.NS (ISC-enriched organoids [1]; Dose 2.00 uM, ENR+CD, 6 days): 0.030 log 2 fold change; Dose.FC.LYZ.NS (ISC-enriched organoids [1]; Dose 10.00 uM, ENR+CD, 6 days): 0.057 log 2 fold change; Dose.FC.CTG (ISC-enriched organoids [2]; Dose 0.08 uM, ENR+CD, 6 days): 0.240 log 2 fold change; Dose.FC.CTG (ISC-enriched organoids [2]; Dose 0.40 uM, ENR+CD, 6 days): 0.174 log 2 fold change; Dose.FC.CTG (ISC-enriched organoids [2]; Dose 2.00 uM, ENR+CD, 6 days): 0.341 log 2 fold change; Dose.FC.CTG (ISC-enriched organoids [2]; Dose 10.00 uM, ENR+CD, 6 days): 0.320 log 2 fold change; Dose.FC.LYZ.S (ISC-enriched organoids [3]; Dose 0.08 uM, ENR+CD, 6 days): 0.062 log 2 fold change; Dose.FC.LYZ.S (ISC-enriched organoids [3]; Dose 0.40 uM, ENR+CD, 6 days): 0.047 log 2 fold change; Dose.FC.LYZ.S (ISC-enriched organoids [3]; Dose 2.00 uM, ENR+CD, 6 days): −0.051 log 2 fold change; Dose.FC.LYZ.S (ISC-enriched organoids [3]; Dose 10.00 uM, ENR+CD, 6 days): −0.011 log 2 fold change
4 | Cl.Cl.NC1(c2ccc(-c3nc4ccn5c(=O)[nH]nc5c4cc3-c3ccccc3)cc2)CCC1 [MK-2206 2HCl] | 0.024 | 0.205 | −0.063 | −0.550 | −0.182 | −1.587 | −0.236 | −2.058 | 0.071 | 0.169 | −0.023 | −0.055 | −0.178 | −0.425 | −0.540 | −1.290 | 0.071 | 0.083 | −0.239 | −0.367 | SSMD.LYZ.NS (ISC-enriched organoids [1]; [8]): 0.230; SSMD.LYZ.NS (ISC-enriched organoids [1]; [9]): −0.481; SSMD.LYZ.NS (ISC-enriched organoids [1]; [10]): −1.586; SSMD.LYZ.NS (ISC-enriched organoids [1]; [11]): −1.642; SSMD.CTG (ISC-enriched organoids [2]; [8]): 0.242; SSMD.CTG (ISC-enriched organoids [2]; [9]): −0.074; SSMD.CTG (ISC-enriched organoids [2]; [10]): −0.453; SSMD.CTG (ISC-enriched organoids [2]; [11]): −1.730; Z.LYZ.S (ISC-enriched organoids [3]; [8]): 0.460; Z.LYZ.S (ISC-enriched organoids [3]; [9]): 0.536; Z.LYZ.S (ISC-enriched organoids [3]; [10]): −1.546; Z.LYZ.S (ISC-enriched organoids [3]; [11]): −2.370; SSMD.LYZ.S (ISC-enriched organoids [3]; [8]): 0.403; SSMD.LYZ.S (ISC-enriched organoids [3]; [9]): 0.232; SSMD.LYZ.S (ISC-enriched organoids [3]; [10]): −1.686; SSMD.LYZ.S (ISC-enriched organoids [3]; [11]): −1.628
5 | Cc1cc(SCc2sc(-c3ccc(C(F)(F)F)c(F)c3)nc2C)ccc1OCC(=O)O [GW0742] | 0.052 | – | 0.045 | – | 0.026 | – | −0.152 | – | −0.751 | – | −0.489 | – | −0.249 | – | −0.451 | – | 0.048 | 0.106 | 0.014 | −0.183 | Z.LYZ.NS (ISC-enriched organoids [1]; [12]): 0.454; Z.LYZ.NS (ISC-enriched organoids [1]; [13]): 0.390; Z.LYZ.NS (ISC-enriched organoids [1]; [14]): 0.231; Z.LYZ.NS (ISC-enriched organoids [1]; [15]): −1.322; Z.CTG (ISC-enriched organoids [2]; [12]): −1.794; Z.CTG (ISC-enriched organoids [2]; [13]): −1.167; Z.CTG (ISC-enriched organoids [2]; [14]): −0.596; Z.CTG (ISC-enriched organoids [2]; [15]): −1.078
